{"source": "paper PMC3129046", "about": "“Engineering Laccases: In Search for Novel Catalysts” (Current Genomics, 2011)", "biological_target": "T1, LAC3 (Trametes sp. C30, UniProt Q6TH77)", "T1 construct": "lac3 cDNA in pYES-DEST52 under GAL1 promoter, secreted by Saccharomyces cerevisiae W303-1A; 501 aa, calc", "T1 sequence (Q6TH77 24-524)": "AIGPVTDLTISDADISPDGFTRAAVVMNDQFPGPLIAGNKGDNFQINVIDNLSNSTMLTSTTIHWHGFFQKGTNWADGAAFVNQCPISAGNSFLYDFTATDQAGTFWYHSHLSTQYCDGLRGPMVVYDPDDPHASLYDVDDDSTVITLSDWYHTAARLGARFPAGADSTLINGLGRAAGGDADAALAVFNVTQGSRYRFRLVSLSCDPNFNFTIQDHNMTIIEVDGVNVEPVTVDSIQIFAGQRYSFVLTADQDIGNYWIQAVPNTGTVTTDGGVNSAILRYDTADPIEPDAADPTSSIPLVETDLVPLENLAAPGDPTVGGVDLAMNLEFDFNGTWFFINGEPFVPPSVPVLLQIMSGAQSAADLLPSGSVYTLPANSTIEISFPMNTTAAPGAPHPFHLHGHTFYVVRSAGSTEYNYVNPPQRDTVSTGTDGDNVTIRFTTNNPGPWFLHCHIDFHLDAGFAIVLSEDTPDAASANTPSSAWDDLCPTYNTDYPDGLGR", "test": "brown halo on agar plate", "format": "cell-based", "settings": "secreted recombinant enzyme, selective medium SGal URA"}
{"compound": "COc1ccccc1O", "note": "[2-methoxyphenol]", "values": [{"measurement": "brown halo on agar plate", "value": "brown coloration resulting from the oxidation of the substrate 2-methoxyphenol by laccases"}]}
